Assay [1] has as its system ONC-T18. The assay is described as follows: Fatty acid production antagonist supplementation of ONC-T18 culture, fatty acid profile by FAME GC-FID. In kind it is cell-based, Thraustochytrium sp. ONC-T18. Particulars: for DHA accumulated in ONC-T18, change versus control (in words): antagonist added to medium. As to the method:
Media containing 25 g/l sea salt and 1 g/l yeast extract was autoclaved at 120° C. for 20 minutes. Sterilized glucose was added to the media at a concentration of 9 g/l. Sethoxydim (Supleco) was dissolved in dimethyl sulfoxide at a concentration of 5 mg/ml was then added to the media at to represent a final concentration of 100 µM. 1 ml of a 24 hour pre-culture of ONC-T 18 that had been cultured in the same media was added. Culturing was carried out in a shaker (130 rpm) for four days at room temperature. After the incubation period, cells were harvested by centrifugation at 4300 rpm for 10 minutes. The cell pellets were then freeze-dried, weighed and the oil was extracted from the cells.
(§1) The lipids were extracted and derivatized to fatty acid methyl esters (FAME) for gas chromatography analysis (GC). Transesterification and extraction was done using 200 mg freeze dried cells, with C19:0 as internal standard, added transesterification reaction mix (methanol:hydrochloric acid:chloroform, 10:1:1) mixed and heated at 90° C. for 2 hours, then allowed to cool at room temperature. FAMEs were extracted by adding 1 ml water, and 2 ml hexane:chloroform (4:1), and allow organic and aqueous phases to separate. The organic layer was extracted and treated with 0.5 g of anhydrous sodium sulfate to remove particulates and residual water. The organic solvents were evaporated under a stream of argon. The FAMEs were re-suspended in 5 ml of iso-octane and analyzed by GC-FID. The percent conversion was calculated by dividing the product produced by the sum of (the product produced plus the substrate added) and then multiplying by 100.
Media containing 6 g/l sea salt, 2 g/l yeast extract, and 8 g/l L-glutamic acid monosodium salt hydrate was autoclaved at 120° C. for 20 minutes. Sterilized D+-glucose was then added to this media at a concentration of 40 g/l. Cerulenin dissolved in ethanol at a concentration of 5 mg/ml was added to 250 ml flask and the solvent was evaporated for 1 hour prior to adding the media to the flask. The amount of cerulenin in the flask represented a final concentration of 20 mg/l. ONC-T18 was then added to the medium from a plate culture and culturing occurred in a shaker (130 rpm) at room temperature for four days. After the incubation period, cells were harvested by centrifugation at 4300 rpm for 10 minutes, washed once with distilled water, and then centrifuged again at 4300 rpm for 10 minutes. The cell pellets were then freeze-dried, weighed and the oil was extracted from the cells.
as §1, with “produced+the” for “produced plus the”
Media containing 6 g/l sea salt, 2 g/l yeast extract, and 8 g/l L-glutamic acid monosodium salt hydrate was autoclaved at 120° C. for 20 minutes. Sterilized D+-glucose wad then added at a concentration of 5 g/l or was not added to the media. Oleic acid was added to the media to represent a final concentration of 2 ml/l. […]

The test system of assay [2] is ONC-T18. The assay is described as follows: Carotenoid content of ONC-T18 exposed to Norflurazon. The class given is cell-based, Thraustochytrium sp. ONC-T18. As to the method:
Cells were harvested by centrifugation at 3800×g and washed with phosphate buffered saline. Then resuspended in 10× volume of acetone (Sigma-Aldrich, St Louis, Mo., USA), agitated for 5 minutes at 200 RPM, centrifuged at 3,800×g for 5 mins and concentrated to dryness by N2 evaporation. Followed by resuspension in a minimal amount of 10% acetone in hexane prior to HPLC analysis. Identifications were carried out on an Agilent 1100 HPLC (Agilent, Palo Alto, Calif., USA) equipped with a variable wavelength detector set at 470 nm. Samples were injected through a Symmetry C18 guard column (Waters, Milford, Mass., USA) to a Bondclone C18 reverse-phase column (Phenomenex, Torrance, Calif., USA; […] particles; 3.9×300 mm i.d.). The injection volume was 10 μl and a flow of 1 ml min^−1 10% acetone in hexane over a 25 minute period was used. Carotenoid identity was further confirmed with mass spectrometry analysis (Micromass ESI-QT of MS, Waters, Milford, Mass., USA). Quantitative data for each carotenoid was based on the development of a calibration curve using standards (astaxanthin, zeaxanthin, canthaxanthin, echinenone and β-carotene) and comparing peak area with defined concentrations.

Assay [3] has as its system Schizochytrium limacinum SR21. The following applies: dose dependant; cited from earlier work.
Assay [4] concerns ONC-T18. The experiment in a line: 13C labeled oleic acid incorporation into polyunsaturated fatty acids. The class given is cell-based, Thraustochytrium sp. ONC-T18. Particulars: added to culture medium.
Setting [5] is: presence of the antagonist, oleic acid without glucose.

On to `CNc1cnn(-c2cccc(C(F)(F)F)c2)c(=O)c1Cl` [norflurazon], for which the “DHA accumulated in ONC-T18, change versus control (in words)” value in the assay on ONC-T18 [1] was “increase in the content and proportion of DHA”. In the assay on ONC-T18 [1] (listed as Norflurazon), the “DHA accumulated in ONC-T18, change versus control (in words)” value was “DHA increase”. In the assay on ONC-T18 [1] (increasing amount added), the “proportion of PUFA in ONC-T18 fatty acid profile (in words)” value is “proportion of PUFA increased”. Moreover, in the assay with ONC-T18 [1] (setting [5]), the “adrenic acid, lipid as percentage of total fatty acid” value is listed as 0.17%; the “arachidic acid, lipid as percentage of total fatty acid” value is on record as 0.16%; the “arachidonic acid, lipid as percentage of total fatty acid” value was found to be 0.19%; the “behenic acid, lipid as percentage of total fatty acid” value amounted to 0.05%. In the assay with ONC-T18 [1] (setting [5]), the “docosadienoic acid, lipid as percentage of total fatty acid” value was 0.03%; the “docosahexaenoic acid, lipid as percentage of total fatty acid” value turned out to be 20.61%; the “docosapentaenoic acid n-3, lipid as percentage of total fatty acid” value is on record as 0.19%; the “docosapentaenoic acid n-6, lipid as percentage of total fatty acid” value turned out to be 5.23%. Further, in the assay on ONC-T18 [1] (setting [5]), the “eicosadienoic acid, lipid as percentage of total fatty acid” value came to 0.13%; the “eicosapentaenoic acid, lipid as percentage of total fatty acid” value is given as 0.76%; the “eicosatetraenoic acid, lipid as percentage of total fatty acid” value is listed as 0.24%; the “eicosatrienoic acid, lipid as percentage of total fatty acid” value was 0.00%. For the same molecule, in the assay with ONC-T18 [1] (setting [5]), the “eicosenoic acid, lipid as percentage of total fatty acid” value stood at 0.02%; the “heneicosapentaenoic acid, lipid as percentage of total fatty acid” value is listed as 0.00%; the “hexacosanoic acid, lipid as percentage of total fatty acid” value stood at 0.00%; the “homo-gamma-linolenic acid, lipid as percentage of total fatty acid” value came out at 0.18%. Moreover, in the assay on ONC-T18 [1] (setting [5]), the “lignoceric acid, lipid as percentage of total fatty acid” value is recorded as 0.00%; the “margaric acid, lipid as percentage of total fatty acid” value came to 1.03%; the “myristic acid, lipid as percentage of total fatty acid” value is 11.08%; the “myristoleic acid, lipid as percentage of total fatty acid” value came to 0.12%. Moreover, in the assay on ONC-T18 [1] (setting [5]), the “nervonic acid, lipid as percentage of total fatty acid” value was found to be 0.00%; the “oleic acid, lipid as percentage of total fatty acid” value amounted to 0.00%; the “palmitic acid, lipid as percentage of total fatty acid” value turned out to be 40.61%; the “palmitoleic acid, lipid as percentage of total fatty acid” value was 10.65%. Also, in the assay on ONC-T18 [1] (setting [5]), the “pentadecanoic acid, lipid as percentage of total fatty acid” value is listed as 3.16%; the “pentadecenoic acid, lipid as percentage of total fatty acid” value is 0.33%; the “stearic acid, lipid as percentage of total fatty acid” value worked out at 1.52%; the “vaccenic acid, lipid as percentage of total fatty acid” value came to 3.53%. Besides, the “carotenoid content of ONC-T18 (in words)” value in the assay on ONC-T18 [2] is “carotenoid content decreased”.
In the case of `Cc1ccc(C(=O)O)cc1` [p-toluic acid], in assay [3], the “EPA concentration (in words)” value is given as “increasing the EPA concentration” and the “omega-6 DPA concentration (in words)” value is listed as “reducing the omega-6 DPA concentration”.
Turning to ^13C labeled oleic acid, the “fate of 13C carbon from enriched oleic acid (in words)” value with ONC-T18 [4] was “found in subsequent polyunsaturated fatty acids”.

(Values after patent US9023616B2, “Oil producing microbes and method of modification thereof” (DSM Nutritional Products AG, priority 2006, dated 2015).)
